Patent publication US12590095B2, “Crystalline forms of an orally available, selective kit and PDGFR kinase inhibitor” (Sandoz AG, priority 2019, dated 2026)

Columns and labels:
Format in all cases: physicochemical
[1] = Slurry experiments in aqueous isopropanol, form checked by PXRD; settings: for form found by PXRD after slurry: aqueous isopropanol 3:1, 0° C.
Method: Form A and Form B of avapritinib were each slurried in aqueous isopropanol [4 mL, 3:1 (volume:volume)] at 0° C., 20° C. and 40° C., respectively. Samples were taken after 1 and 5 days and investigated by powder-X-ray diffraction.

[2] = Thermogravimetric analysis (TGA); settings: for TGA mass loss: 10 K/min
Method: TGA was performed on a Mettler TGA/DSC 1 instrument. The samples (8.29 mg Form A, 8.11 mg Form B, 4.12 mg Form Hy1) were each weighed into a 100 microliter aluminum pan closed with an aluminum lid. The lid was automatically pierced at the beginning of the measurement. The samples were each heated from 25 to 250° C. at a rate of 10 K/min. Nitrogen (purge rate 50 mL/min) was used as purge gas.

[3] = Gravimetric moisture sorption (GMS); settings: for mass change during the sorption cycle: GMS, (25±0.1)° C.; for solid form by powder X-ray diffraction after the GMS experiment: after full sorption/desorption cycle 0-90% RH; for hygroscopicity: judged from GMS mass change
Method: Moisture sorption isotherms were recorded along with other samples with an SPSx-1μ moisture sorption analyzer (ProUmid, Ulm). The measurement cycle was started at ambient relative humidity (RH) of 25% (Form A) or 40% (Form B and Form Hy1). Relative humidity was then decreased to 5% in 5% steps, followed by a further decrease to 3% and to 0%. Afterwards RH was increased from 0% to 90% in a sorption cycle and decreased to 0% in a desorption cycle in 5% steps. Finally, the RH was increased to a relative humidity of 25% (Form A) or 40% (Form B and Form Hy1) in 5% steps. The time per step was set to a minimum of 2 hours and a maximum of 6 hours. If an equilibrium condition with a constant mass of +0.01% within 1 hour was reached before the maximum time for all examined samples the sequential humidity step was applied before the maximum time of 6 hours. If no equilibrium was achieved the consecutive humidity step was applied after the maximum time of 6 hours. The temperature was (25±0.1)° C.

[4] = Storage stability under various stress conditions, form checked by PXRD; settings: 6 months
From the text: Avapritinib Form A, Form B and hydrate Form Hy1 were each subjected to the various stress conditions listed in Table 8 for 6 months and the samples were investigated by powder X-ray diffraction.

| SMILES | stability in slurry experiments ([1]; all applied conditions (0, 20, 40° C.; 1 and 5 days)) | thermodynamic relationship of Form A and Form B ([1]; from slurry experiments and DSC at 1 K/min) | TGA mass loss ([2]; up to about 190° C.) | mass change during the sorption cycle ([3]; 0-90% RH) | solid form by powder X-ray diffraction after the GMS experiment [3] | hygroscopicity [3] | conversion in slurry experiments ([1]; 0° C.) | conversion in slurry experiments ([1]; 20° C. and 40° C., already after 1 day) | form found by PXRD after slurry ([1]; 1 day) | form found by PXRD after slurry ([1]; 5 days) | TGA mass loss ([2]; up to about 180° C.) | form found by PXRD after stress test ([4]; 25° C./60% RH) | form found by PXRD after stress test ([4]; 30° C./65% RH) | form found by PXRD after stress test ([4]; 40° C./75% RH) | form found by PXRD after stress test ([4]; RT/97% RH) | TGA mass loss ([2]; from beginning of measurement until about 110° C.) [weight-%] | water corresponding to TGA mass loss ([2]; until about 110° C.) | mass change during the sorption cycle ([3]; 10-90% RH) |
| --- | --- | --- | --- | --- | --- | --- | --- | --- | --- | --- | --- | --- | --- | --- | --- | --- | --- | --- |
| Cn1cc(-c2cc3c(N4CCN(c5ncc([C@@](C)(N)c6ccc(F)cc6)cn5)CC4)ncnn3c2)cn1 [Form A, (1S)-1-(4-fluorophenyl)-1-(2-[4-[6-(1-methyl-1H-pyrazol-4-yl)pyrrolo[2,1-f][1,2,4]triazin-4-yl]piperazin-1-yl]pyrimidin-5-yl)ethan-1-amine] | remained stable | the stable form below its melting point | about 0.3 weight % | about 0.1 weight % | Form A | non-hygroscopic |  |  |  |  |  |  |  |  |  |  |  |  |
| Cn1cc(-c2cc3c(N4CCN(c5ncc([C@@](C)(N)c6ccc(F)cc6)cn5)CC4)ncnn3c2)cn1 [Form B, (1S)-1-(4-fluorophenyl)-1-(2-[4-[6-(1-methyl-1H-pyrazol-4-yl)pyrrolo[2,1-f][1,2,4]triazin-4-yl]piperazin-1-yl]pyrimidin-5-yl)ethan-1-amine] |  |  |  | about 0.3 weight % | Form B | only slightly hygroscopic | partially converted to Form A | fully converted to Form A | B + A | A + B | about 0.3 weight-% |  |  |  |  |  |  |  |
| Cn1cc(-c2cc3c(N4CCN(c5ncc([C@@](C)(N)c6ccc(F)cc6)cn5)CC4)ncnn3c2)cn1 [Form Hy1] |  |  |  |  | Form Hy1 | only slightly hygroscopic |  |  |  |  |  | Hy1 | Hy1 | Hy1 | Hy1 | 3.5 | approximately 1 mol equivalent | about 1.4 weight % |
